In patent US9579319B2 (Redx Pharma PLC, priority 2013, dated 2017):
Values after ≈ are worked out from the molar mass of the structure shown. Where two headings read alike, the source gives them in different places.

Legend:
[1] = test system: Hedgehog signalling pathway; experiment: Gli-reporter NIH3T3 luciferase assay (Hedgehog pathway inhibition); format: cell-based; settings: NIH3T3, Gli-reporter NIH-3T3 cells, recombinant mouse sonic hedgehog, 24 hours, luminescence
Outline: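 Mouse NIH3T3 cells with Gli-responsive luciferase reporter, pre-treated 1 h with compound (top final concentration 1 μM, 0.1% DMSO) in 0.5% calf serum medium. Then stimulated with recombinant mouse sonic hedgehog for 24 h at 37° C. Luminescence read-out (OneGLO), triplicates; IC50 reported.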

[2] = Thermodynamic solubility with filtration; format: physicochemical; settings: aqueous buffer, thermodynamic from solid, pH 7.4 phosphate buffer (0.1 M), room temperature, filtered
Procedure: Thermodynamic Solubility with Filtration
0.5 mg is weighed into a Mini Uniprep filter vial (Whatman, PVDF, 0.2 μm). 0.5 mL of pH 7.4 phosphate buffer (0.1 M) is dispensed and the vial is shaken at 600 rpm for 24 h at room temperature. At the end of this period, the solution is then filtered and an aliquot of the filtrate is used to create a tenfold dilution. Standards are prepared by serially diluting a 1250 μg/mL DMSO stock solution of the compound to 125 and 2.5 μg/mL, in Acetonitrile/Water (50:50, v/v). The concentration of the filtrate and tenfold dilution is measured by detection against the two calibration standards.

[3] = read-out: Category (Hedgehog pathway inhibition activity, IC50)

Compound	IC50 ([1]; read-out: Gli luc IC50)	solubility at 24 h [2]	IC50 [1, 3]	other results
Cc1nc(CN(C)C2CCN(c3nnc(-c4ccnn4C)c4ccccc34)CC2)c(C(F)(F)F)o1 [Example 98, N-methyl-1-[4-(2-methylpyrazol-3-yl)phthalazin-1-yl]-N-[[2-methyl-5-(trifluoromethyl)oxazol-4-yl]methyl]piperidin-4-amine]	10 to 200 nM	106 µg/mL (≈ 218 µM)		
Cc1nc(CN(C)C2CCN(c3nnc(-c4ccnn4C)c(C)c3C)CC2)c(C(F)(F)F)o1 [Example 97, 1-[4,5-dimethyl-6-(2-methylpyrazol-3-yl)pyridazin-3-yl]-N-methyl-N-[[2-methyl-5-(trifluoromethyl)oxazol-4-yl]methyl]piperidin-4-amine]	10 to 200 nM	1010 µg/mL (≈ 2180 µM)		
CN(Cc1ccnnc1)C1CCN(c2nnc(-c3ccnn3C)c3ccccc23)CC1 [Example 91, N-methyl-1-[4-(2-methylpyrazol-3-yl)phthalazin-1-yl]-N-(pyridazin-4-ylmethyl)piperidin-4-amine]	> 200 nM			
CC(=O)N(Cc1ccc(F)cc1C(F)(F)F)C1CCN(c2nnc(-c3ccnn3C)c3ccccc23)CC1 [Example 77, N-[[4-fluoro-2-(trifluoromethyl)phenyl]methyl]-N-[1-[4-(2-methylpyrazol-3-yl)phthalazin-1-yl]-4-piperidyl]acetamide]			10 to 200 nM	
Cn1nccc1-c1nnc(N2CCC(NCc3ccccc3[N+](=O)[O-])CC2)c2ccccc12 [Example 31, 1-[4-(2-methylpyrazol-3-yl)phthalazin-1-yl]-N-[(2-nitrophenyl)methyl]piperidin-4-amine]			10 to 200 nM	
Cn1nccc1-c1nnc(N2CCC(NCc3ccc(F)cc3F)CC2)c2ccccc12 [Example 74, N-[(2,4-difluorophenyl)methyl]-1-[4-(2-methylpyrazol-3-yl)phthalazin-1-yl]piperidin-4-amine]			200 to 2000 nM	
CN(Cc1ccc(F)cc1F)C1CCN(c2nnc(-c3ccnn3C)c3ccccc23)CC1 [Example 67, N-[(2,4-difluorophenyl)methyl]-N-methyl-1-[4-(2-methylpyrazol-3-yl)phthalazin-1-yl]piperidin-4-amine]			10 to 200 nM	
Cn1nccc1-c1nnc(N2CCC(NC(=O)Nc3cccc(C(F)(F)F)c3)CC2)c2ccccc12 [Example 13, 1-[1-[4-(2-methylpyrazol-3-yl)phthalazin-1-yl]-4-piperidyl]-3-[3-(trifluoromethyl)phenyl]urea]			< 10 nM	
Cc1c(-c2ccnn2C)nnc(N2CCC(N(C)Cc3ncccc3C(F)(F)F)CC2)c1C [Example 85, 1-[4,5-dimethyl-6-(2-methylpyrazol-3-yl)pyridazin-3-yl]-N-methyl-N-[[3-(trifluoromethyl)-2-pyridyl]methyl]piperidin-4-amine]	10 to 200 nM			
COc1cccc(CNC2CCN(c3nnc(-c4ccnn4C)c4ccccc34)CC2)c1 [Example 70, N-[(3-methoxyphenyl)methyl]-1-[4-(2-methylpyrazol-3-yl)phthalazin-1-yl]piperidin-4-amine]			10 to 200 nM	

Second part, led by results:

IC50 ([1]; read-out: Gli luc IC50)	solubility at 24 h [2]	IC50 [1, 3]	Compound	other results
< 10 nM	321 µg/mL (≈ 687 µM)		Cn1nccc1-c1nnc(N2CCC(NCc3cnccc3C(F)(F)F)CC2)c2ccccc12 [Example 156, 1-[4-(2-methylpyrazol-3-yl)phthalazin-1-yl]-N-[[4-(trifluoromethyl)-3-pyridyl]methyl]piperidin-4-amine]	
< 10 nM	399 µg/mL (≈ 755 µM)		CN(C(=O)Nc1ccc(F)cc1C(F)(F)F)C1CCN(c2nnc(-c3ccnn3C)c3ccncc23)CC1 [Example 112, 3-[4-fluoro-2-(trifluoromethyl)phenyl]-1-methyl-1-[1-[1-(2-methylpyrazol-3-yl)pyrido[3,4-d]pyridazin-4-yl]-4-piperidyl]urea]	IC50 ([1]; read-out: Gli Luc nM (IC50)): 1.26 nM
10 to 200 nM	1190 µg/mL (≈ 2890 µM)		Cc1ccccc1CNC1CCN(c2nnc(-c3ccnn3C)c3ccccc23)CC1 [Example 170, 1-[4-(2-methylpyrazol-3-yl)phthalazin-1-yl]-N-(o-tolylmethyl)piperidin-4-amine]	
10 to 200 nM	1260 µg/mL (≈ 3270 µM)		Cc1c(-c2ccnn2C)nnc(N2CCC(NC(=O)NC(C)(C)C)CC2)c1C [Example 116, 1-tert-butyl-3-[1-[4,5-dimethyl-6-(2-methylpyrazol-3-yl)pyridazin-3-yl]-4-piperidyl]urea]	
< 10 nM			CN(C(=O)Nc1ccc(F)cc1F)C1CCN(c2nnc(-c3ccnn3C)c3ccccc23)CC1 [Example 169, 3-(2,4-difluorophenyl)-1-methyl-1-[1-[4-(2-methylpyrazol-3-yl)phthalazin-1-yl]-4-piperidyl]urea]	
> 200 nM			CN(C(=O)NC(C)(C)C)C1CCN(c2nnc(-c3ccnn3C)c3ncccc23)CC1 [Example 129, 3-tert-butyl-1-methyl-1-[1-[8-(2-methylpyrazol-3-yl)pyrido[2,3-d]pyridazin-5-yl]-4-piperidyl]urea]	
> 200 nM			CN(C(=O)Nc1ccc(F)cc1F)C1CCN(c2nnc(-c3ccnn3C)c3ncccc23)CC1 [Example 101, 3-(2,4-difluorophenyl)-1-methyl-1-[1-[8-(2-methylpyrazol-3-yl)pyrido[2,3-d]pyridazin-5-yl]-4-piperidyl]urea]	
< 10 nM			Cn1nccc1-c1nnc(N2CCC(NC(=O)Nc3ccc(F)cc3C(F)(F)F)CC2)c2cnccc12 [Example 105, 1-[4-fluoro-2-(trifluoromethyl)phenyl]-3-[1-[1-(2-methylpyrazol-3-yl)pyrido[3,4-d]pyridazin-4-yl]-4-piperidyl]urea]	
10 to 200 nM			CN(C1CCN(c2nnc(-c3ccnn3C)c3ccncc23)CC1)S(=O)(=O)c1ccc(F)cc1F [Example 102, 2,4-difluoro-N-methyl-N-[1-[1-(2-methylpyrazol-3-yl)pyrido[3,4-d]pyridazin-4-yl]-4-piperidyl]benzenesulfonamide]	
